The text below walks through data of patent US12303498B2, “ALK5 inhibitors as skeletal muscle hypertrophy inducers” (CYTOO, priority 2018, dated 2025).

Assay [1] concerns Human primary myoblasts (healthy donors 3, 1 and 5). Nature of the assay: MyoScreen hypertrophy assay on myotubes from healthy donors. In kind it is cell-based. As to conditions: for EC50 / activity at 10 µM: Homo sapiens, Myoblast. On the procedure: Healthy donor primary skeletal cells (Donor 1, Donor 3 and Donor 5) were Clonetics™ Human Skeletal Muscle Myoblasts (HSMM). In addition, cells from three DMD (Duchenne muscular dystrophy) donors (Donor Z, W and D1) and from a healthy donor (Donor A) were sourced.
(§1) Hypertrophy and Atrophy Rescue assays were performed using an in vitro fully automated human myotube model called MyoScreen™ (Cytoo, France). This model relies on a tight control of the microenvironment that guides the differentiation of human primary myoblasts. Myotubes formed on MyoScreen™ micropatterns present a high level of maturation together with a highly standardized morphology.
(§2) Human primary myoblasts from donors were seeded in MyoScreen™ micropatterned 96-well plates (Cytoo, France), let them adhere for 24 h in growth medium, then run the differentiation in a low horse serum medium for at least 5 days.
(§3) At Day 0, MyoScreen™ plates (Cytoo, France) containing micropatterns were pre-filled with 200 μl/well of growth medium and stored in the incubator at 37° C. Human primary myoblasts were detached from the flasks, count, and seeded into the plates with 15 000 cells per well in 100 μl of growth medium.
(§4) At Day 1, the growth medium was changed for a differentiation medium, 300 μl/well (DMEM with 0.1% horse serum) in which myoblasts started differentiating and forming myotubes.
(§5) At Day 2, the differentiation medium was changed. Then candidate compounds were diluted with differentiation medium and transferred into the plate. The final concentration of DMSO should be not higher than 0.1%. At least 6 wells were treated with the vehicle as a basal control, and 6 wells were treated with IGF-1 at 100 ng/ml as positive hypertrophy control.
(§6) At Day 6, cells were fixed with formalin 5% for 30 min at room temperature, then permeabilized with Triton X-100 at 0.1% in PBS for 15 min, and blocked with PBS+BSA 1% for 20 minutes. Myotubes were incubated with first antibody against Troponin T in blocking buffer for 1 h30, washed three times with PBS, incubated with secondary antibody and Hoescht ( 1/10000) for 1 h30, and washed three times with PBS.
(§7) Images were acquired at 10× magnification with an Operetta High Content Imaging System. Image processing and analysis were performed with dedicated algorithms developed on the Acapella High Content Imaging Software (Perkin Elmer) by CYTOO. Eleven fields per well were acquired.
First, segmentation of myotubes and nuclei were done using respectively the Troponin T staining intensity and the Hoechst staining. […] The threshold of segmentation was set-up in order to avoid detecting the background noise and eliminate aberrant small myotube structures.
(§8) Then, an image clean-up step was performed on the Troponin T images in order to remove myotubes that touch the border of the image. The final valid myotubes were used to extract myotube morphology parameters including the myotube width and area, and the number of nuclei per myotube.
Nuclei Count, Fusion Index, Mean myotube Area and Number of nuclei per myotube have been validated as relevant and sensitive readouts of myotube differentiation as well as atrophic and hypertrophic induction.
A primary screening was run to identify hypertrophy compounds that increase the myotube differentiation and size. Candidate compounds were tested at 10 μM in monoplicate on Donor 3 cells.
A retest was run, by cherry picking (same compound batch as primary screening): each hit was tested in the same conditions as in the Primary Screening (Donor 3, 10 μM) in six well replicates.

The test system of assay [2] is Myotubes from the healthy donor 3 atrophied by TNF-α, IL-1β, Myostatin, TGF-β or dexamethasone. Briefly: Atrophy rescue assay (MyoScreen). It counts as cell-based, human. Details: key: +++: total rescue; ++: partial rescue; +: low rescue. On the procedure:
as §1, §2, §3, §4, §5
For Atrophy Rescue assay, one hour after candidate compound addition, atrophy inducers were added at the following final concentration: 150 ng/mL of myostatin, 25 ng/mL of IL-1β, 2 ng/mL of TNF-α, 0.5 ng/mL of TGF-β and 100 μM of dexamethasone.
as §6, §7
First, segmentation of myotubes and nuclei were done using respectively the Troponin T staining intensity and the Hoechst staining. One to two myotubes per micropattern were usually identified (a myotube is a troponin T staining area that includes at least 2 nuclei). The threshold of segmentation was set-up in order to avoid detecting the background noise and eliminate aberrant small myotube structures. At the end of this first step, specific readouts were calculated in the whole well, like the nuclei count and the fusion index (percentage of nuclei included in troponin T staining) Usually around 50 to 60 myotubes were detected per well in a control condition.
as §8
Atrophy Rescue assays were performed in triplicate in the presence of atrophy inducers, i.e. TNF-α, IL-1β, Myostatin, TGF-β and dexamethasone.
Atrophy rescue assays was performed for RepSox. Myotubes from the healthy donor 3 were atrophied using different inducers: TNF-α, IL-1β, Myostatin, TGF-β and dexamethasone.

One may read the EC50 as the concentration at which the effect is half-maximal.

Structures are written as SMILES. Like-named read-outs stand apart in the source and are kept apart here.

With `Cc1cccc(-c2n[nH]cc2-c2ccc3ncccc3n2)n1` [RepSox], the “activity in dose responses on three healthy donors” value in assay [1] (Donors 3, 5 and 1) was “active on all donors”. Moreover, the EC50 in assay [1] (first dose response assay, healthy Donor 1, read-out: Donor 1 EC50) amounted to 560 nM; in assay [1] (first dose response assay, healthy Donor 3, read-out: Donor 3 EC50) it was 5 nM; in assay [1] (first dose response assay, healthy Donor 5, read-out: Donor 5 EC50), 2.5 nM; in assay [1] (second dose response assay, healthy Donor 3, read-out: EC50), 5 nM. The activity at 10 µM in assay [1] (healthy Donor 3, monoplicate (IGF-1 100 ng/ml), % Activity = Myotube fusion index (compound)*100/Myotube Fusion index (basal control), read-out: Primary screening (% Activity)) stood at 183%; in assay [1] (healthy Donor 3, six well replicates (IGF-1 100 ng/ml), fusion index vs basal control, read-out: Retest (% Activity)), 171%. The “Donor 1 % Activity” value in assay [1] (first dose response assay, healthy Donor 1) was 143%. Also, the “Donor 3 % Activity” value in assay [1] (first dose response assay, healthy Donor 3) was 140%. Also, the “Donor 5 % Activity” value in assay [1] (first dose response assay, healthy Donor 5) stood at 204%. In addition, the “increase in the fusion index or/and myotube area readouts” value in assay [1] (primary screening and retest, Donor 3, 10 μM) is recorded as over 170%. In addition, the “% Activity” value in assay [1] (second dose response assay, healthy Donor 3) was 140%. In assay [2] (atrophy inducer IL-1β 25 ng/mL), the “atrophy rescue, IL-1” value is recorded as “++”. For the same compound, the “atrophy rescue, TGF-β” value in assay [2] (atrophy inducer TGF-β 0.5 ng/mL) is on record as “+++”. Also, the “atrophy rescue, TNF-alpha” value in assay [2] (atrophy inducer TNF-α 2 ng/mL) is reported as “++”. Moreover, the “atrophy rescue, dexamethasone” value in assay [2] (atrophy inducer dexamethasone 100 μM) is on record as “+++”. Also, in assay [2] (atrophy inducer myostatin 150 ng/mL), the “atrophy rescue, Myostatin” value was “+++”.
